Measured values as given in patent US20090270459A1, “Flea control agent containing N-Substituted indole derivative” (priority 2001, published 2009).

What was measured:
adult cat fleas = assay: Effect on cat flea (1): glass tube residue contact test, knock-down and mortality; type: in vivo, cat flea (Ctenocephalides felis); set-up: After 3 hours (KD) knocking-down rate: unit not given here
Description: Each compound was dissolved in acetone to a predetermined concentration and 0.1 ml of the resulting solution was dropped into the bottom of a glass tube with a diameter of 2.8 cm and a height of 12 cm and air-dried. After the air-drying, 10 adult cat fleas were placed in the glass tube and the glass tube was closed with nylon mesh and allowed to stand under conditions of a room temperature of 26° C. and a humidity of 80%. The knocked-down (KD) fleas after 3 hours and the dead and alive after 24 hours and 48 hours were counted, and the knocking-down rate and the mortality were calculated. Fipronil was used as a positive control. In a control experiment, no treatment with an agent was carried out.

[1] = test system: cat fleas parasitic on a cat; assay: Effect on cat flea (2): spot-on of 10% liquid drops on flea-infested cat, cumulative fall rate; type: in vivo, cat flea (Ctenocephalides felis) on cat; details: for Cumulative fall rate (%) After 2 hours: cat with 30 cat fleas
Description: Fleas that had fallen from the cat body were counted at intervals of 2 hours until 8 hours after the dropping of the solution, and the cumulative fall rate was calculated. In addition, fleas that had fallen in 24 hours were counted and the cumulative fall rate after 1 day was calculated. Two days after the dropping, the living fleas on the cat body were counted by the use of a flea-removing comb.

std:ddy strain male mice = assay: Toxicity to mouse, administration into the stomach; type: in vivo
Description: The compound listed in Table 1 or Fipronil was dissolved in olive oil to a predetermined concentration, and the resulting solution was directly administered into the stomachs of std:ddy strain male mice by the use of a probe. The dose was 30 mg/kg or 100 mg/kg. Whether the mice were alive or dead was observed 3 hours, 1 day, 7 days and 14 days after the administration.

[2] = test system: adult cat fleas made parasitic on the cat body; assay: Effect on cat flea (3): residual effect after spot-on of 10% liquid drops on cat, re-infestation; type: in vivo, cat flea (Ctenocephalides felis) on cat; details: for Number of living fleas on the second day after inoculation: 30 fleas inoculated
Description: After the dropping, 30 adult cat fleas were made parasitic on the cat body after a predetermined number of weeks. On the second day after this inoculation with the parasites, the living fleas on the cat body were counted by the use of a flea-removing comb.

cat = assay: Toxicity to cat, spot-on dropping of liquid drops; details: for Clinical symptom: 0.5 ml spot-on, cat, listed as No. 17
Description: After the dropping, the clinical symptom of the cat was observed.

[3] = 1 mg/tube, 10 adult cat fleas, 26° C., humidity 80%
[4] = 30 mg/kg into the stomach, in olive oil, male mice

| Compound | After 3 hours (KD) knocking-down rate (adult cat fleas; 0.001 mg/tube) | After 1 day (mortality) (adult cat fleas; 0.001 mg/tube) | After 2 days (mortality) (adult cat fleas; 0.001 mg/tube) | After 3 hours (KD) knocking-down rate (adult cat fleas; 0.01 mg/tube) | After 1 day (mortality) (adult cat fleas; 0.01 mg/tube) | After 2 days (mortality) (adult cat fleas; 0.01 mg/tube) | After 3 hours (KD) knocking-down rate (adult cat fleas; 0.1 mg/tube) | After 1 day (mortality) (adult cat fleas; 0.1 mg/tube) | After 2 days (mortality) (adult cat fleas; 0.1 mg/tube) | After 1 day (mortality) (adult cat fleas; 1 mg/tube) | After 2 days (mortality) (adult cat fleas; 1 mg/tube) | After 3 hours (KD) knocking-down rate (adult cat fleas; [3]) | Cumulative fall rate (%) After 4 hours ([1]; 0.5 ml of 10% solution spot-on) | Cumulative fall rate (%) After 6 hours ([1]; 0.5 ml of 10% solution spot-on) | Cumulative fall rate (%) After 8 hours ([1]; 0.5 ml of 10% solution spot-on) | Cumulative fall rate (%) After 24 hours ([1]; 0.5 ml of 10% solution spot-on) | Cumulative fall rate (%) After 2 hours ([1]; 0.5 ml of 10% solution spot-on) | Cumulative mortality After 1 day (std:ddy strain male mice; 30 mg/kg) | Cumulative mortality After 7 days (std:ddy strain male mice; 30 mg/kg) | Cumulative mortality After 14 days (std:ddy strain male mice; 30 mg/kg) | further results |
| --- | --- | --- | --- | --- | --- | --- | --- | --- | --- | --- | --- | --- | --- | --- | --- | --- | --- | --- | --- | --- | --- |
| N#Cc1nn(-c2c(Cl)cc(C(F)(F)F)cc2Cl)c(N)c1[S+]([O-])C(F)(F)F (centres unmarked) [Fipronil, 5-amino-1-(2,6-dichloro-4-(trifluoromethyl)phenyl)-4-((trifluoromethyl)sulfinyl)-1H-pyrazole-3-carbonitrile, reference compound] | 0 | 20% | 20% | 0 | 20% | 90% | 0 | 100% | 100% | 100% | 100% | 0 | 3% | 20% | 27% | 90% | 0% | 1/5 | 1/5 | 1/5 | Dead fleas found on the body of the cat ([1]; 24 hours after the dropping, 0.5 ml of 10% solution): three; Cumulative mortality After 3 hours (std:ddy strain male mice; [4]): 0/5; Cumulative mortality After 3 hours (std:ddy strain male mice; 100 mg/kg): 1/5; Cumulative mortality After 1 day (std:ddy strain male mice; 100 mg/kg): 5/5; Cumulative mortality After 7 days (std:ddy strain male mice; 100 mg/kg): 5/5; Cumulative mortality After 14 days (std:ddy strain male mice; 100 mg/kg): 5/5 |
| FC(Cl)(Cl)Sc1cn(-c2c(Cl)cc(C(F)(F)F)cc2Cl)c2ccccc12 [Compound 17, 1-(2,6-dichloro-4-trifluoromethylphenyl)-3-(dichlorofluoromethylthio)indole] | 0 | 10% | 40% | 0 | 70% | 100% | 0 | 100% | 100% | 100% | 100% | 50 | 15% | 37% | 47% | 100% | 0% | 0/5 | 0/5 | 0/5 | Duration of the aftereffect ([2]; 0.5 ml of 10% solution spot-on, cat): about 6 weeks; Number of living fleas on the second day after inoculation ([2]; 1 week after administration, 0.5 ml of 10% solution): 0; Number of living fleas on the second day after inoculation ([2]; 2 weeks after administration): 0; Number of living fleas on the second day after inoculation ([2]; 4 weeks after administration): 0; Number of living fleas on the second day after inoculation ([2]; 6 weeks after administration): 6; Number of living fleas on the second day after inoculation ([2]; 6 weeks after administration, listed as No. 17): six; Number of living fleas on the second day after inoculation ([2]; 8 weeks after administration): 13; Number of living fleas on the second day after inoculation ([2]; 8 weeks after administration, listed as No. 17): thirteen; Killing of the fleas until 4 weeks after the dropping ([2]; until 4 weeks after the dropping): completely killed the fleas; Toxicity to cat (cat; 10, 20 or 30% liquid drops spot-on): only low toxicity; Clinical symptom (cat; dropping concentration 10%): no abnormal sign; Clinical symptom (cat; dropping concentration 20%): no abnormal sign; Clinical symptom (cat; dropping concentration 30%): no abnormal sign; Fate of the fleas that had fallen from the cat body ([1]; 0.5 ml of 10% solution spot-on): died within several hours; Cumulative mortality After 3 hours (std:ddy strain male mice; [4]): 0/5; Cumulative mortality After 3 hours (std:ddy strain male mice; 100 mg/kg): 0/5; Cumulative mortality After 1 day (std:ddy strain male mice; 100 mg/kg): 0/5; Cumulative mortality After 7 days (std:ddy strain male mice; 100 mg/kg): 0/5; Cumulative mortality After 14 days (std:ddy strain male mice; 100 mg/kg): 0/5 |
